Measured values: patent publication US20260151378A1, “SALT AND CRYSTAL FORM OF HETEROCYCLIC DERIVATIVE INHIBITOR, AND PREPARATION METHOD THEREFOR AND USE THEREOF” (SHANGHAI HANSOH BIOMEDICAL CO., LTD., priority 2022, published 2026)

Tests used:
[1] = system: BRCA2 Knockout DLD-1 cells; assay: Inhibition of proliferation of BRCA2 Knockout DLD-1 cells (CellTiter-Glo); assay type: cell-based; conditions: Homo sapiens, about 144 hours
Method: When using RPMI1640 medium containing 10% FBS to culture BRCA2 Knockout DLD-1 cells to an appropriate cell density, the cells were collected and adjusted with complete medium to an appropriate cell concentration, the cell suspension was spread in a 96-well plate, with 90 μL per well, and the plate was placed in a 37° C., 5% CO2 incubator for overnight adherence. Compound solutions with different concentrations were prepared with DMSO and the culture medium, and a vehicle control was prepared. The compound solutions were added to the 96-well plate, with 10 μL per well, and the plate was placed in a 37° C., 5% CO2 incubator for continued culturing for about 144 hours. CellTiter-Glo solution was added and uniformly mixed by shaking. After incubation for 10-30 minutes in the dark, reading was carried out with Synergy H1 or Envision microplate reader.
The inhibition rate was calculated from the luminescence signal value, and the concentration and inhibition rate were subjected to non-linear regression curve fitting by using Graphpad Prism software to obtain an IC50 value. The inhibitory effects of the compounds of some examples of the present disclosure on the proliferation activity of BRCA2 Knockout DLD-1 cells were as shown in the following table: […]

[2] = Polymorphism study: slurrying of salt crystalline forms in solvents; assay type: physicochemical; conditions: 7 days
[3] = PK study of crystalline forms of different salts in rats; assay type: in vivo; conditions: SD rats, gavage, 0.5% HPMC K4M
[4] = Hygroscopicity determination; assay type: physicochemical; conditions: for hygroscopicity / weight gain after moisture absorption: RH 80%; for crystalline form transformation (XRPD pattern): after 1 cycle of moisture absorption and desorption, 0-95% relative humidity
Method: The crystalline forms of the salt of the compound were placed in saturated water vapor at different relative humidities to reach a dynamic equilibrium between the crystalline forms of the salt of the compound and the water vapor, and the weight gain percentage after moisture absorption after equilibrium was calculated.

[5] = Solubility experiment in different vehicles; assay type: physicochemical; conditions: 37° C., 2 hours
[6] = Solid stability experiment; assay type: physicochemical
Method: About 1 mg of crystalline forms of different salts were taken and investigated at a high temperature of 60° C., a high humidity of RH=92.5%, and a high temperature and high humidity of 50° C. and 75% RH for 7 and 14 days. The changes of related substances were calculated for the crystalline forms of the salts by a chromatographic peak area normalization method.

[7] = system: human colorectal cancer cell strain DLD-1 BRCA2−/−; assay: In vivo pharmacodynamics in DLD-1 BRCA2−/− subcutaneous graft tumor model; design: species or system BALB/c nude mice; conditions: DLD-1 BRCA2−/− nude mice, oral, once/day, 28 days
Method: • a. […] The cells were passaged every three days, and after passage, the cells were placed in a CO2 incubator to continue the culture. This process was repeated until the cell number meets the needs of in vivo efficacy. • c. The cultured cells were collected, counted using a full-automatic cell counter, resuspended with PBS according to the counting results, and prepared into a cell suspension (at a density of 5×10^7/mL), which was then placed in an ice box for use. • a. Nude mouse was marked with a disposable universal ear tag for mice and rats before inoculation. • b. At the time of inoculation, the cell suspension was mixed well, 0.1-1 mL of cell suspension was taken with a 1 mL syringe, and after removing air bubbles, the syringe was placed on an ice bag until use. • c. The nude mouse was secured with the left hand. […] The nude mice were inoculated successively (inoculation with 0.1 mL of cell suspension per mouse). • a. […] According to the weight of tumor-bearing mice and the size of the tumor, the mice were grouped by random grouping. • c. […] Tumors were measured and weighed twice a week after starting administration of test drugs. • e. […] The data was processed with software such as Excel.

[8] = FaSSGF (simulated gastric fluid, fasted)
[9] = FaSSIF (simulated intestinal fluid, fasted)
[10] = FeSSIF (simulated intestinal fluid, fed)

CCc1cc2ncc(CN3CC=C(c4ccc(C(=O)NCC#N)nc4)CC3)cc2[nH]c1=O [Example 15]
IC50 [1]: 2.4 nM

CCc1cc2ncc(CN3CC=C(c4ccc(C(=O)NCC(F)(F)F)nc4)CC3)cc2[nH]c1=O [Example 20]
IC50 [1]: 1.4 nM

CNC(=O)c1ccc(C2=CCN(Cc3cnc4cc(C(F)(F)F)c(=O)[nH]c4c3)CC2)cn1 [Example 21]
IC50 [1]: 5.1 nM

1′-((7-ethyl-6-carbonyl-5,6-dihydro-1,5-diazanaphth-3-yl)methyl)-N-methyl-1′,2′,3′,6′-tetrahydro-[3,4′-bipyridinyl]-6-carboxamide [sulfate crystalline Form A]
Slurrying result ([2]; 1,4-Dioxane, 50° C.): Crystalline Form A
Slurrying result ([2]; 2-Me—THF, 50° C.): Crystalline Form A
Slurrying result ([2]; ACN, 50° C.): Crystalline Form A
Slurrying result ([2]; Acetone, 50° C.): Crystalline Form A
Slurrying result ([2]; EA, 50° C.): Crystalline Form A
Slurrying result ([2]; EtOH, 50° C.): Crystalline Form A
Slurrying result ([2]; MeOH, 50° C.): Crystalline Form A
Slurrying result ([2]; THF, 50° C.): Crystalline Form A
Slurrying result ([2]; Toluene, 50° C.): Crystalline Form A
AUC0-t ([3]; 5 mpk, 5 mg/kg): 118.078 µg·h/mL
AUC0-∞ ([3]; 5 mpk, 5 mg/kg): 119.241 µg·h/mL
Cmax ([3]; 5 mpk, 5 mg/kg): 14467 ng/mL
F % ([3]; 5 mpk, 5 mg/kg): 75%
MRT0-∞ ([3]; 5 mpk, 5 mg/kg): 5.3 h
t1/2 ([3]; 5 mpk, 5 mg/kg): 3.7 h
tmax ([3]; 5 mpk, 5 mg/kg): 2.0 h
hygroscopicity [4]: weak hygroscopicity
weight gain after moisture absorption [4]: 1.785%
crystalline form transformation (XRPD pattern) [4]: no crystalline form transformation occurred
solubility [5, 8]: >466 µg/mL
solubility [5, 9]: 133 µg/mL
solubility [5, 10]: >347 µg/mL
solubility ([5]; Water): 696 µg/mL
Stability result (total impurity increase %) ([6]; 50° C., 75% RH, 7 days): 0.12%
Stability result (total impurity increase %) ([6]; 50° C., 75% RH, 14 days): 0.56%
Stability result (total impurity increase %) ([6]; 60° C., 7 days): 0.76%
Stability result (total impurity increase %) ([6]; 60° C., 14 days): 0.66%
Stability result (total impurity increase %) ([6]; 92.5% RH, 7 days): 0.17%
Stability result (total impurity increase %) ([6]; 92.5% RH, 14 days): 0.06%

1′-((7-ethyl-6-carbonyl-5,6-dihydro-1,5-diazanaphth-3-yl)methyl)-N-methyl-1′,2′,3′,6′-tetrahydro-[3,4′-bipyridinyl]-6-carboxamide [p-toluenesulfonate dihydrate crystalline Form A]
Slurrying result ([2]; 1,4-Dioxane, 40° C.): Still as hydrate crystalline
Slurrying result ([2]; 2-Butanone, 40° C.): Still as hydrate crystalline
Slurrying result ([2]; 2-Methyltetrahydrofuran, 40° C.): Still as hydrate crystalline
Slurrying result ([2]; Acetone, 40° C.): p-Toluenesulfonate crystalline
Slurrying result ([2]; Acetonitrile, 40° C.): p-Toluenesulfonate crystalline
Slurrying result ([2]; Dichloromethane, 40° C.): p-Toluenesulfonate crystalline
Slurrying result ([2]; Ethanol, 40° C.): p-Toluenesulfonate crystalline
Slurrying result ([2]; Ethyl acetate, 40° C.): Still as hydrate crystalline
Slurrying result ([2]; Ethyl formate, 40° C.): p-Toluenesulfonate crystalline
Slurrying result ([2]; Isopropanol, 40° C.): Still as hydrate crystalline
Slurrying result ([2]; Methyl tert-butyl ether, 40° C.): Still as hydrate crystalline
Slurrying result ([2]; Tetrahydrofuran, 40° C.): Still as hydrate crystalline
Slurrying result ([2]; Toluene, 40° C.): Still as hydrate crystalline
Slurrying result ([2]; Trichloromethane, 40° C.): p-Toluenesulfonate crystalline
Slurrying result ([2]; methanol, 40° C.): p-Toluenesulfonate crystalline
AUC0-t ([3]; 5 mpk): 145.036 µg·h/mL
AUC0-∞ ([3]; 5 mpk): 146.622 µg·h/mL
Cmax ([3]; 5 mpk): 17433 ng/mL
t1/2 ([3]; 5 mpk): 3.8 h
F % ([3]; 5 mpk, 5 mg/kg): 92%
MRT0-∞ ([3]; 5 mpk, 5 mg/kg): 5.4 h
tmax ([3]; 5 mpk, 5 mg/kg): 1.0 h
AUC0-t ([3]; 20 mpk): 558.44 µg·h/mL
AUC0-∞ ([3]; 20 mpk): 587.652 µg·h/mL
Cmax ([3]; 20 mpk): 53400 ng/mL
F % ([3]; 20 mpk): 93%
MRT0-∞ ([3]; 20 mpk): 7.5 h
t1/2 ([3]; 20 mpk): 5.7 h
tmax ([3]; 20 mpk): 4.0 h
hygroscopicity [4]: weak hygroscopicity
weight gain after moisture absorption [4]: 1.906%
crystalline form transformation (XRPD pattern) [4]: no crystalline form transformation occurred
solubility [5, 8]: >437 µg/mL
solubility [5, 9]: 147 µg/mL
solubility [5, 10]: >340 µg/mL
solubility ([5]; Water): 308 µg/mL
Stability result (total impurity increase %) ([6]; 50° C., 75% RH, 7 days): <0.03%
Stability result (total impurity increase %) ([6]; 50° C., 75% RH, 14 days): <0.03%
Stability result (total impurity increase %) ([6]; 60° C., 7 days): <0.03%
Stability result (total impurity increase %) ([6]; 60° C., 14 days): <0.03%
Stability result (total impurity increase %) ([6]; 92.5% RH, 7 days): 0.08%
Stability result (total impurity increase %) ([6]; 92.5% RH, 14 days): <0.03%

CCc1cc2ncc(CN3CC=C(c4ccc(C(=O)NC5(C#N)CC5)nc4)CC3)cc2[nH]c1=O [Example 16]
IC50 [1]: 2.7 nM

CCc1cc2ncc(CN3CC=C(c4ccc(C(=O)NOC)nc4)CC3)cc2[nH]c1=O [Example 3]
IC50 [1]: 3.2 nM

CCc1cc2ncc(CN3CCC(c4ccc(C(=O)NC)nc4)=C(F)C3)cc2[nH]c1=O [Example 19]
IC50 [1]: 1.5 nM

CCc1cc2ncc(CN3CC=C(c4ccc(C(=O)NC5CC5)nc4)CC3)cc2[nH]c1=O [Example 2]
animal weight [7]: without significant reduction of the animal weight

CCc1cc2ncc(CN3CC=C(c4ccc(C(=O)NC)nc4Cl)CC3)cc2[nH]c1=O [Example 13]
IC50 [1]: 1 nM
